In ChEMBL document CHEMBL3826916, “Synthesis and potent antiprotozoal activity of mono/di amidino 2-anilinobenzimidazoles versus Plasmodium falciparum and Trypanosoma brucei rhodesiense” (Bioorg Med Chem, 2016):

Experiments:
[1] = tested on: Trypanosoma brucei rhodesiense; test: Antiparasitic activity against bloodstream forms of Trypanosoma brucei rhodesiense STIB 900 assessed as growth inhibition after 72 hrs by resazurin assay; format: functional, organism-based; conditions: STIB 900, 72 h
Plasmodium falciparum = test: Antiplasmodial activity against chloroquine and pyrimethamine resistant Plasmodium falciparum K1 infected in human erythrocytes after 48 hrs by [3H]hypoxanthine incorporation assay; format: functional, organism-based
L6 = test: Cytotoxicity against rat L6 cells by alamar blue assay; format: cell-based
[2] = Selectivity index, ratio of IC50 for rat L6 cells to IC50 for bloodstream forms of Trypanosoma brucei rhodesiense STIB 900; format: toxicity, cell-based; conditions: read-out: Ratio IC50
[3] = Selectivity index, ratio of IC50 for rat L6 cells to IC50 for chloroquine and pyrimethamine resistant Plasmodium falciparum K1 infected in human erythrocytes; format: toxicity, cell-based; conditions: read-out: Ratio IC50

Row | SMILES | IC50 [1] | IC50 (Plasmodium falciparum) | IC50 (L6) | selectivity ratio [2] | selectivity ratio [3]
1 | CC(C)NC(=N)c1ccc(Nc2nc3cc(C(=N)NC(C)C)ccc3[nH]2)cc1 | 0.027 µM | 0.164 µM | 108 µM | 4000 | 660
2 | N=C(N)c1ccc(Nc2nc3cc(Cl)ccc3[nH]2)cc1 | 19.6 µM | 0.877 µM | 46.4 µM | 2.4 | 53
3 | N=C(N)c1ccc2[nH]c(Nc3ccc(Cl)c(Cl)c3)nc2c1 | 21.8 µM | 0.138 µM | 39.1 µM | 1.8 | 280
4 | N=C(N)c1ccc(Nc2nc3ccccc3[nH]2)cc1 | 15.8 µM | 3.29 µM | 123 µM | 7.7 | 37
5 | N=C(N)c1ccc2[nH]c(Nc3ccc(Cl)cc3)nc2c1 | 17 µM | 0.688 µM | 41.6 µM | 2.4 | 60
6 | Cc1cc2[nH]c(Nc3ccc(C(=N)N)cc3)nc2cc1Cl | 20.7 µM | 0.795 µM | 23.2 µM | 1.1 | 29
7 | N=C(N)c1ccc(Nc2nc3cc(C(=N)N)ccc3[nH]2)cc1 | 0.00466 µM | 0.0675 µM | 105 µM | 22600 | 1560
8 | N=C(N)c1ccc(Nc2nc3cc(C(F)(F)F)ccc3[nH]2)cc1 | 20.9 µM | 0.853 µM | 41.4 µM | 2 | 49
9 | N=C(NC1CCCCC1)c1ccc(Nc2nc3cc(C(=N)NC4CCCCC4)ccc3[nH]2)cc1 | 0.0051 µM | 0.0459 µM | 63.7 µM | 12500 | 1390
10 | N=C(N)c1ccc2[nH]c(Nc3ccccc3)nc2c1 | 54.7 µM | 5.46 µM | 237 µM | 4.3 | 43
11 | CCC(C)NC(=N)c1ccc(Nc2nc3cc(C(=N)NC(C)CC)ccc3[nH]2)cc1 (stereo not given) | 0.0455 µM | 0.294 µM | 93.6 µM | 2060 | 320
12 | CC(C)CNC(=N)c1ccc(Nc2nc3cc(C(=N)NCC(C)C)ccc3[nH]2)cc1 | 0.0095 µM | 0.0913 µM | 84.4 µM | 8880 | 925
